Drawing on patent US5747456A, “Continuous low-dose administration of parathyroid hormone or its agonist” (Beth Israel Deaconess Medical Center, priority 1996, dated 1998), this text covers IC50 and EC50 for five compounds.

Non-standard residues stand in square brackets, D forms with d. Residues, ends and D or L forms follow the SMILES beside them. Nle = CCCC[C@H](N)C(=O)O

As usually defined, the IC50 is the concentration needed to halve the response being measured. A word on the EC50: it is the midpoint of the concentration-response curve.

The target in test [1] is T1, PTH/PTHrP receptor in SaOS-2 B10 cells (Homo sapiens, UniProt Q03431).
T1 construct: endogenous in cells; host or cells: SaOS-2 B10 cells (subclone of the human osteosarcoma line SaOS-2)
T1 sequence (Q03431 27-593): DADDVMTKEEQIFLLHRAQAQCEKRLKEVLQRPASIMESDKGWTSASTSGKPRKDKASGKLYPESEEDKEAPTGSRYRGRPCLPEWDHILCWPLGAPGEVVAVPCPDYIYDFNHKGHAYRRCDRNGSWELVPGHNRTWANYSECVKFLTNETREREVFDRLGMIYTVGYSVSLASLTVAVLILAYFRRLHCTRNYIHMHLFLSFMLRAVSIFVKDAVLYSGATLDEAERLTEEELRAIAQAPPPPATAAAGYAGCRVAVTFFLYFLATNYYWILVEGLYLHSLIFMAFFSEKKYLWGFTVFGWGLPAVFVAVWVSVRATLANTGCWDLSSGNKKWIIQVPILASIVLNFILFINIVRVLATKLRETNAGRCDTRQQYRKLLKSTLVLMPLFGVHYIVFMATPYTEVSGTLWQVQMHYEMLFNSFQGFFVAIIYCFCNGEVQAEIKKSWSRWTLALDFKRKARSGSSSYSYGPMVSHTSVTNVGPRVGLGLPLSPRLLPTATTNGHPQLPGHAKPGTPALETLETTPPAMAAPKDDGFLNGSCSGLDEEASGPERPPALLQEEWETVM
Briefly: Competition binding of mono-125I-[Nle8,18,Tyr34(3-I125)]bPTH1-34 NH2 to SaOS-2 B10 cells. Particulars: 2 hrs at room temperature, read-out: IC50 (half maximal inhibition of binding of mono-125I-[Nle8,18,Tyr34(3-I125)]bPTH1-34 NH2). The procedure:
SaOS-2 B10 cells were maintained in RPMI1640 medium supplemented with 10% fetal bovine serum (FBS) and 2 mM glutamine at 37° C. in a humidified atmosphere of 5% CO2 in air. The medium was changed every three or four days, and the cells were subcultured every week by trypsinization.
SaOs-2 B10 cells were maintained for four days after they had reached confluence. The medium was replaced with 5% FBS […] medium and incubated for 2 hrs at room temperature with 10×10^4 cpm mono-^125 -I-[Nle^8,18,Tyr^34 (3-I^125)]bPTH1-34 NH2 in the presence or absence of a competing tested PTH agonist. The cells were washed four times with ice-cold PBS and lysed with 0.1M NaOH, and the radioactivity associated with the cells was counted in a scintillation counter. Synthesis of the radiolabelled [Nle8,18. Tyr^34 (3-I^125)]bPTH1-34 NH2 was carried out as described in Goldman M E et al., Endocrinology, 1988, 123, 1468-1475.
The binding assay was conducted on Analogs I-IV and Analog V (i.e., [Nle^8, Nle^18, Tyr^34 ]bPTH1-34 NH2).

Test [2] deals with adenylate cyclase in SaOS-2 B10 cells. In words: Adenylate cyclase activity (cyclic AMP) in SaOS-2 B10 cells. It counts as cell-based, human. Particulars: 1 mM IBMX, 5 min incubation with analog, read-out: EC50 (half maximal stimulation of adenylate cyclase). The protocol: The adenylate cyclase activity induced by each of Analogs I-V was also measured in SaOS-2 B10 cells as described previously (Rodan et al. 1983 J. Clin. Invest. 72;1511; Goldman et al. 1988 Endocrinology 123, 1468). Confluent SaOS-2 B10 cells in 24 wells plates were incubated 0.5 μCi[^3 H]adenine (26.9 Ci/mmol, New England Nuclear, Boston, Mass.) in fresh medium at 37° C. for 2 hrs, and washed twice with Hank's solution. The cells were treated with 1 mM IBMX [isobutylmethylxanthine, Sigma, St. Louis, Mo.] in fresh medium for 15 min, and a tested PTH analog was added to the medium to incubate for 5 min. The reaction was stopped by the addition of 1.2M TCA followed by sample neutralization with 4N KOH. Cyclic AMP was isolated by the two-column chromatographic method (see Salomon et al. 1974 Anal. Biochem. 58;541). The radioactivity was counted in a scintillation counter (Liquid scintillation counter 2200CA, PACKARD, Downers Grove, Ill.).

Take `CCCC[C@H](NC(=O)[C@H](CO)NC(=O)[C@H](CO)NC(=O)[C@H](CC(C)C)NC(=O)[C@H](Cc1c[nH]cn1)NC(=O)[C@H](CCCCN)NC(=O)CNC(=O)[C@H](CC(C)C)NC(=O)[C@H](CC(N)=O)NC(=O)[C@H](Cc1c[nH]cn1)NC(=O)[C@H](CCCC)NC(=O)[C@H](Cc1ccccc1)NC(=O)[C@H](CCC(N)=O)NC(=O)[C@@H](NC(=O)[C@H](CCC(=O)O)NC(=O)[C@H](CO)NC(=O)[C@@H](NC(=O)[C@H](C)N)C(C)C)[C@@H](C)CC)C(=O)N[C@@H](CCC(=O)O)C(=O)N[C@@H](CCCNC(=N)N)C(=O)N[C@H](C(=O)N[C@@H](Cc1ccccc1)C(=O)N[C@@H](Cc1c[nH]c2ccccc12)C(=O)N[C@@H](CC(C)C)C(=O)N[C@@H](CCCNC(=N)N)C(=O)N[C@@H](CCCCN)C(=O)N[C@@H](CCCCN)C(=O)N[C@@H](CC(C)C)C(=O)N[C@@H](CCC(N)=O)C(=O)N[C@@H](CC(=O)O)C(=O)N[C@H](C(=O)N[C@@H](Cc1c[nH]cn1)C(=O)N[C@@H](CC(N)=O)C(=O)N[C@@H](Cc1ccc(O)cc1)C(N)=O)C(C)C)C(C)C` [Analog I, [Nle^8,18,Phe^22,Tyr^34]bPTH1-34 NH2] (H-AVSEIQF[Nle]HNLGKHLSS[Nle]ERVFWLRKKLQDVHNY-NH2; N-terminus assumed): in test [1], the IC50 turned out to be 1.5 nM. Besides, the 50% effective concentration (EC50) in test [2] turned out to be 1.5 nM.
On to `CCCC[C@H](NC(=O)[C@H](CO)NC(=O)[C@H](CO)NC(=O)[C@H](CC(C)C)NC(=O)[C@H](Cc1c[nH]cn1)NC(=O)[C@H](CCCCN)NC(=O)CNC(=O)[C@H](CC(C)C)NC(=O)[C@H](CC(N)=O)NC(=O)[C@H](Cc1c[nH]cn1)NC(=O)[C@H](CCCC)NC(=O)[C@H](Cc1ccccc1)NC(=O)[C@H](CCC(N)=O)NC(=O)[C@@H](NC(=O)[C@H](CCC(=O)O)NC(=O)[C@H](CO)NC(=O)[C@@H](NC(=O)[C@H](C)N)C(C)C)[C@@H](C)CC)C(=O)N[C@@H](CCCNC(=N)N)C(=O)N[C@@H](CCCNC(=N)N)C(=O)N[C@H](C(=O)N[C@@H](CCC(=O)O)C(=O)N[C@@H](Cc1c[nH]c2ccccc12)C(=O)N[C@@H](CC(C)C)C(=O)N[C@@H](CCCNC(=N)N)C(=O)N[C@@H](CCCCN)C(=O)N[C@@H](CCCCN)C(=O)N[C@@H](CC(C)C)C(=O)N[C@@H](CCC(N)=O)C(=O)N[C@@H](CC(=O)O)C(=O)N[C@H](C(=O)N[C@@H](Cc1c[nH]cn1)C(=O)N[C@@H](CC(N)=O)C(=O)N[C@@H](Cc1ccc(O)cc1)C(N)=O)C(C)C)C(C)C` [Analog II, [Nle^8,18,Arg^19,Tyr^34]bPTH1-34 NH2] (H-AVSEIQF[Nle]HNLGKHLSS[Nle]RRVEWLRKKLQDVHNY-NH2; N-terminus assumed), for which the half-inhibitory concentration (IC50) in test [1] worked out at 0.6 nM. The EC50 in test [2] was 2 nM.
For `CCCC[C@H](NC(=O)[C@H](CO)NC(=O)[C@H](CO)NC(=O)[C@H](CC(C)C)NC(=O)[C@H](Cc1c[nH]cn1)NC(=O)[C@H](CCCCN)NC(=O)CNC(=O)[C@H](CC(C)C)NC(=O)[C@H](CC(N)=O)NC(=O)[C@H](Cc1c[nH]cn1)NC(=O)[C@H](CCCC)NC(=O)[C@H](Cc1ccccc1)NC(=O)[C@H](CCC(N)=O)NC(=O)[C@@H](NC(=O)[C@H](CCC(=O)O)NC(=O)[C@H](CO)NC(=O)[C@@H](NC(=O)[C@H](C)N)C(C)C)[C@@H](C)CC)C(=O)N[C@@H](CCC(=O)O)C(=O)N[C@@H](CCCNC(=N)N)C(=O)N[C@@H](CCCNC(=N)N)C(=O)N[C@@H](CCC(=O)O)C(=O)N[C@@H](Cc1c[nH]c2ccccc12)C(=O)N[C@@H](CC(C)C)C(=O)N[C@@H](CCCNC(=N)N)C(=O)N[C@@H](CCCCN)C(=O)N[C@@H](CCCCN)C(=O)N[C@@H](CC(C)C)C(=O)N[C@@H](CCC(N)=O)C(=O)N[C@@H](CC(=O)O)C(=O)N[C@H](C(=O)N[C@@H](Cc1c[nH]cn1)C(=O)N[C@@H](CC(N)=O)C(=O)N[C@@H](Cc1ccc(O)cc1)C(N)=O)C(C)C` [Analog III, [Nle^8,18,Arg^21,Tyr^34]bPTH1-34 NH2] (H-AVSEIQF[Nle]HNLGKHLSS[Nle]ERREWLRKKLQDVHNY-NH2; N-terminus assumed), in that order: 0.3 nM and 0.2 nM.
For `CCCC[C@H](NC(=O)[C@H](CO)NC(=O)[C@H](CO)NC(=O)[C@H](CC(C)C)NC(=O)[C@H](Cc1c[nH]cn1)NC(=O)[C@H](CCCCN)NC(=O)CNC(=O)[C@H](CC(C)C)NC(=O)[C@H](CC(N)=O)NC(=O)[C@H](Cc1c[nH]cn1)NC(=O)[C@H](CCCC)NC(=O)[C@H](Cc1ccccc1)NC(=O)[C@H](CCC(N)=O)NC(=O)[C@@H](NC(=O)[C@H](CCC(=O)O)NC(=O)[C@H](CO)NC(=O)[C@@H](NC(=O)[C@H](C)N)C(C)C)[C@@H](C)CC)C(=O)N[C@@H](CCCNC(=N)N)C(=O)N[C@@H](CCCNC(=N)N)C(=O)N[C@@H](CCCNC(=N)N)C(=O)N[C@@H](CCC(=O)O)C(=O)N[C@@H](Cc1c[nH]c2ccccc12)C(=O)N[C@@H](CC(C)C)C(=O)N[C@@H](CCCNC(=N)N)C(=O)N[C@@H](CCCCN)C(=O)N[C@@H](CCCCN)C(=O)N[C@@H](CC(C)C)C(=O)N[C@@H](CCC(N)=O)C(=O)N[C@@H](CC(=O)O)C(=O)N[C@H](C(=O)N[C@@H](Cc1c[nH]cn1)C(=O)N[C@@H](CC(N)=O)C(=O)N[C@@H](Cc1ccc(O)cc1)C(N)=O)C(C)C` [Analog IV, [Nle^8,18,Arg^19,21,Tyr^34]bPTH1-34 NH2] (H-AVSEIQF[Nle]HNLGKHLSS[Nle]RRREWLRKKLQDVHNY-NH2; N-terminus assumed), in that order: 0.3 nM and 0.5 nM.
In the same order, the values of `CCCC[C@H](NC(=O)[C@H](CO)NC(=O)[C@H](CO)NC(=O)[C@H](CC(C)C)NC(=O)[C@H](Cc1c[nH]cn1)NC(=O)[C@H](CCCCN)NC(=O)CNC(=O)[C@H](CC(C)C)NC(=O)[C@H](CC(N)=O)NC(=O)[C@H](Cc1c[nH]cn1)NC(=O)[C@H](CCCC)NC(=O)[C@H](Cc1ccccc1)NC(=O)[C@H](CCC(N)=O)NC(=O)[C@@H](NC(=O)[C@H](CCC(=O)O)NC(=O)[C@H](CO)NC(=O)[C@@H](NC(=O)[C@H](C)N)C(C)C)[C@@H](C)CC)C(=O)N[C@@H](CCC(=O)O)C(=O)N[C@@H](CCCNC(=N)N)C(=O)N[C@H](C(=O)N[C@@H](CCC(=O)O)C(=O)N[C@@H](Cc1c[nH]c2ccccc12)C(=O)N[C@@H](CC(C)C)C(=O)N[C@@H](CCCNC(=N)N)C(=O)N[C@@H](CCCCN)C(=O)N[C@@H](CCCCN)C(=O)N[C@@H](CC(C)C)C(=O)N[C@@H](CCC(N)=O)C(=O)N[C@@H](CC(=O)O)C(=O)N[C@H](C(=O)N[C@@H](Cc1c[nH]cn1)C(=O)N[C@@H](CC(N)=O)C(=O)N[C@@H](Cc1ccc(O)cc1)C(N)=O)C(C)C)C(C)C` [Analog V, [Nle^8, Nle^18, Tyr^34]bPTH1-34 NH2, reference compound] (H-AVSEIQF[Nle]HNLGKHLSS[Nle]ERVEWLRKKLQDVHNY-NH2; N-terminus assumed) are 1.5 nM and 2 nM.
